Patent US20240082293A1, “A VAGINAL CONTRACEPTIVE COMPOSITION FOR REINFORCEMENT OF MUCUS BARRIER PROPERTIES” (CIRQLE BIOMEDICAL CONTRACEPTION ApS, priority 2019, published 2024)

Test system: human sperm penetration through human ovulatory cervical mucus
Assay: Sperm penetration assay through ovulatory cervical mucus in capillaries (phase contrast microscopy)
Assay type: cell-based
Conditions: for sperm penetration through mucus treated with poly-L-lysine (barrier reinforcing effect): PLL 5 mg/mL in 32.5 mM lactic acid solution, 30 minutes after exposure to undiluted sperm
Procedure: Semen samples of patients and volunteers collected at the Andrology, Sexual Medicine, Transmedicine, clinic (ANOVA, Karolinska University Hospital, Sweden) were run through standard semen kinematic analyses and sperm penetration assays no later than 3 h after collection. Data were obtained for the collection time, abstinence time, and semen volume. Semen was gently liquefied for 30 min on a rocker in an incubation chamber heated up to 37° C., after complete collection of ejaculates by masturbation. The viscosity of semen was determined visually and by pipetting. Semen was microscopically analysed by pipetting 6 μl of specimen in pre-warmed Leja® (Netherland) counting chamber slides (20 micron). Subsequently, specimens were assessed via clinical ECLIPSE 50i microscope (Nikon Instruments, Japan) equipped with stage heater MS 100 (37° C., Linkam Scientific Instruments, UK), 10× objective (Ph1) and 0.5× charge coupled device camera UI-1540LE-M-HQ (IDS Imaging Development Systems GmbH, Germany) with total magnification of 5×. The system was connected to the Computer Aided Semen Analysis software QualiSperm (v3.0.9.486, AKYmed, Switzerland). Beside the sperm concentration [106/m1], the progressive motility [%], motility [%], immotility [%], velocity [μm/s], sperm size [μm2], and number of cells were measured. Semen samples meeting the following criteria were included in this study: volume of >1.5 ml, concentration of >15×10^6/mland >40% progressive motility. These criteria reflect reference limits of the World Health Organization (WHO) (“WHO Laboratory Manual for the Examination and Processing of Human Semen” 2010) and values for normal spermatozoa as stated in Bjorndahl (Lars Bjorndahl. 2011. “What Is Normal Semen Quality? On the Use and Abuse of Reference Limits for the Interpretation of Semen Analysis Results.” Human Fertility 14 (3): 179-86). In each run, ten values were generated by assessing five fields in two chambers.
Ovulatory cervical mucus (CVM) (the CVM with highest penetrability) was collected from healthy donors at the Karolinska University Hospital. […]

| Substance | sperm penetration through mucus treated with poly-L-lysine (barrier reinforcing effect) | point at which no sperm is seen (distance into the mucus) (sperm numbers assessed 30 minutes after exposure to undiluted sperm, polymer in lactic acid solution) |
| --- | --- | --- |
| poly-L-lysine [low molecular weight PLL] | did not have any effect | – |
| poly-L-lysine [66 KDa PLL] | able to prevent the entrance of the sperm | around 3 cm |
